Test results reported in PubChem BioAssay AID1963872 (Molecular Pharmacology Branch, DTP, NCI, 2024).

System: KRAS patient-derived spheroids with HUVEC/MSC, viability
Assay: Anticancer human tumor 519858-162-T-J1-PDC patient-derived colon adenocarcinoma cell line growth inhibition [KRAS2]
Settings: for viability, T/C: stronger effect = lower value
How it was run: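 Combination screen of spheroid viability in tumor-cell co-cultures with endothelial (HUVEC) and mesenchymal stem cell stroma. Each agent was tested in half-log dilutions, topping at clinical Cmax or at 10 microM without a known Cmax.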

[1] = curve of first compound, second compound 0.1 µM
[2] = curve of first compound, second compound 0.316 µM
[3] = curve of first compound, second compound 1 µM
[4] = curve of first compound, second compound 3.16 µM
[5] = curve of first compound, second compound 10 µM
[6] = second compound 0.1 µM, first compound 0.0316 µM
[7] = second compound 0.1 µM, first compound 0.1 µM
[8] = second compound 0.1 µM, first compound 0.316 µM
[9] = second compound 0.1 µM, first compound 1 µM
[10] = second compound 0.1 µM, first compound 3.16 µM
[11] = second compound 0.1 µM, first compound 10 µM
[12] = second compound 0.316 µM, first compound 0.0316 µM
[13] = second compound 0.316 µM, first compound 0.1 µM
[14] = second compound 0.316 µM, first compound 0.316 µM
[15] = second compound 0.316 µM, first compound 1 µM
[16] = second compound 0.316 µM, first compound 3.16 µM
[17] = second compound 0.316 µM, first compound 10 µM
[18] = second compound 1 µM, first compound 0.0316 µM
[19] = second compound 1 µM, first compound 0.1 µM
[20] = second compound 1 µM, first compound 0.316 µM
[21] = second compound 1 µM, first compound 1 µM
[22] = second compound 1 µM, first compound 3.16 µM
[23] = second compound 1 µM, first compound 10 µM
[24] = second compound 3.16 µM, first compound 0.0316 µM
[25] = second compound 3.16 µM, first compound 0.1 µM
[26] = second compound 3.16 µM, first compound 0.316 µM
[27] = second compound 3.16 µM, first compound 1 µM
[28] = second compound 3.16 µM, first compound 3.16 µM
[29] = second compound 3.16 µM, first compound 10 µM
[30] = second compound 10 µM, first compound 0.0316 µM
[31] = second compound 10 µM, first compound 0.1 µM
[32] = second compound 10 µM, first compound 0.316 µM
[33] = second compound 10 µM, first compound 1 µM
[34] = second compound 10 µM, first compound 3.16 µM
[35] = second compound 10 µM, first compound 10 µM
[36] = second compound 0.1 µM, first compound 0.000316 µM
[37] = second compound 0.1 µM, first compound 0.001 µM
[38] = second compound 0.1 µM, first compound 0.00316 µM
[39] = second compound 0.1 µM, first compound 0.01 µM
[40] = second compound 0.316 µM, first compound 0.000316 µM
[41] = second compound 0.316 µM, first compound 0.001 µM
[42] = second compound 0.316 µM, first compound 0.00316 µM
[43] = second compound 0.316 µM, first compound 0.01 µM
[44] = second compound 1 µM, first compound 0.000316 µM
[45] = second compound 1 µM, first compound 0.001 µM
[46] = second compound 1 µM, first compound 0.00316 µM
[47] = second compound 1 µM, first compound 0.01 µM
[48] = second compound 3.16 µM, first compound 0.000316 µM
[49] = second compound 3.16 µM, first compound 0.001 µM
[50] = second compound 3.16 µM, first compound 0.00316 µM
[51] = second compound 3.16 µM, first compound 0.01 µM
[52] = second compound 10 µM, first compound 0.000316 µM
[53] = second compound 10 µM, first compound 0.001 µM
[54] = second compound 10 µM, first compound 0.00316 µM
[55] = second compound 10 µM, first compound 0.01 µM
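Note: compound exposure lasted seven days before readout.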
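Throughout, for viability, T/C: 100% = DMSO vehicle control viability.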

Row | SMILES | IC50 [1] [µM] | IC50 [2] [µM] | IC50 [3] [µM] | IC50 [4] [µM] | IC50 [5] [µM] | viability, T/C [6] [%] | viability, T/C [7] [%] | viability, T/C [8] [%] | viability, T/C [9] [%] | viability, T/C [12] [%] | viability, T/C [13] [%] | viability, T/C [14] [%] | viability, T/C [15] [%] | viability, T/C [18] [%] | viability, T/C [19] [%] | viability, T/C [20] [%] | viability, T/C [24] [%] | viability, T/C [25] [%] | viability, T/C [30] [%] | viability, T/C [31] [%] | other results
1 | COc1cc(Nc2ncc3c(n2)-c2ccc(Cl)cc2C(c2c(F)cccc2OC)=NC3)ccc1C(=O)O + C=CC(=O)N1CCN(c2nc(=O)n(-c3c(C)ccnc3C(C)C)c3nc(-c4c(O)cccc4F)c(F)cc23)C(C)C1 | > 10 | > 10 | > 10 | > 10 | > 10 | 104 | 62.4 | 89.9 | 102 | 80 | 91.2 | 74.1 | 53.3 | 97.2 | 94.4 | 91.5 | 134 | 74.8 | 95.1 | 74.1 | viability, T/C [10]: 104%; viability, T/C [11]: 120%; viability, T/C [16]: 89.9%; viability, T/C [17]: 125%; viability, T/C [21]: 85.5%; viability, T/C [22]: 83%; viability, T/C [23]: 125%; viability, T/C [26]: 57.1%; viability, T/C [27]: 90.1%; viability, T/C [28]: 71.3%; viability, T/C [29]: 91.1%; viability, T/C [32]: 83%; viability, T/C [33]: 71%; viability, T/C [34]: 73%; viability, T/C [35]: 103%
2 | O=C(c1cc(Cc2n[nH]c(=O)c3ccccc23)ccc1F)N1CCN(C(=O)C2CC2)CC1 + CC1OCC2(CCN(c3cnc(Sc4ccnc(N)c4Cl)c(N)n3)CC2)C1N | > 10 | > 10 | > 10 | > 10 | > 10 | 105 | 76.6 | 80.4 | 87.1 | 83.7 | 100 | 67.7 | 86.6 | 100 | 81.7 | 68.3 | 67.5 | 82.2 | 91.3 | 75.1 | viability, T/C [10]: 98.5%; viability, T/C [11]: 76.4%; viability, T/C [16]: 78.1%; viability, T/C [17]: 95.7%; viability, T/C [21]: 66.9%; viability, T/C [22]: 66.8%; viability, T/C [23]: 76.6%; viability, T/C [26]: 70.8%; viability, T/C [27]: 57.1%; viability, T/C [28]: 83.7%; viability, T/C [29]: 98.7%; viability, T/C [32]: 66.7%; viability, T/C [33]: 57.9%; viability, T/C [34]: 73%; viability, T/C [35]: 65.8%
3 | COc1cc2nccc(Oc3ccc(NC(=O)C4(C(=O)Nc5ccc(F)cc5)CC4)cc3)c2cc1OC + COc1cc2nc(C)nc(NC(C)c3cc(N)cc(C(F)(F)F)c3)c2cc1OC1CCOC1 | > 10 | > 10 | > 10 | > 10 | 2.33 | 73.8 | 73.3 | 57 | 107 | 84.5 | 82 | 72.5 | 85.7 | 55.7 | 73.4 | 71.6 | 75 | 76.8 | 66.6 | 76.5 | viability, T/C [10]: 129%; viability, T/C [11]: 99.9%; viability, T/C [16]: 95.5%; viability, T/C [17]: 64%; viability, T/C [21]: 98%; viability, T/C [22]: 112%; viability, T/C [23]: 68.9%; viability, T/C [26]: 77.9%; viability, T/C [27]: 79.4%; viability, T/C [28]: 41.2%; viability, T/C [29]: 82%; viability, T/C [32]: 65.3%; viability, T/C [33]: 97.1%; viability, T/C [34]: 1.79%; viability, T/C [35]: 79.3%
4 | CN(C)C/C=C/C(=O)Nc1cc2c(Nc3ccc(F)c(Cl)c3)ncnc2cc1O[C@H]1CCOC1 + C=CC(=O)N1CCN(c2nc(=O)n(-c3c(C)ccnc3C(C)C)c3nc(-c4c(O)cccc4F)c(F)cc23)C(C)C1 | > 0.1 | > 0.1 | > 0.1 | > 0.1 | > 0.1 | 87.4 | 84.8 |  |  | 93.9 | 60.2 |  |  | 61.9 | 80.2 |  | 61.5 | 81.7 | 80.9 | 73.6 | viability, T/C [36]: 86.2%; viability, T/C [37]: 95%; viability, T/C [38]: 86.8%; viability, T/C [39]: 80%; viability, T/C [40]: 85.6%; viability, T/C [41]: 103%; viability, T/C [42]: 75.2%; viability, T/C [43]: 86%; viability, T/C [44]: 110%; viability, T/C [45]: 77.8%; viability, T/C [46]: 71%; viability, T/C [47]: 83.4%; viability, T/C [48]: 61.4%; viability, T/C [49]: 69.7%; viability, T/C [50]: 90.5%; viability, T/C [51]: 61.1%; viability, T/C [52]: 74.8%; viability, T/C [53]: 92.6%; viability, T/C [54]: 79.1%; viability, T/C [55]: 67.5%
5 | CC(C)n1nc(-c2ccc3oc(N)nc3c2)c2c(N)ncnc21 |  |  |  |  |  |  |  |  |  |  |  |  |  |  |  |  |  |  |  |  | viability, T/C (compound 0.001 µM): 97.5% [middle of 5 runs]; IC50 (curve of compound): > 0.1 µM
6 | Cn1ncnc1[C@H]1c2n[nH]c(=O)c3cc(F)cc(c23)N[C@@H]1c1ccc(F)cc1 + CNCc1ccccc1-c1csc(C(C)Nc2nc(C)nc3cc(OC)c(OC)cc23)c1 | > 0.1 | > 0.1 | > 0.1 | 0.0711 | < 0.000316 | 95.4 | 98.6 |  |  | 103 | 89.7 |  |  | 78.3 | 102 |  | 54.2 | 48.3 | 0.36 | 0.51 | viability, T/C [36]: 82.2%; viability, T/C [37]: 95.5%; viability, T/C [38]: 96.5%; viability, T/C [39]: 71.5%; viability, T/C [40]: 86.3%; viability, T/C [41]: 94.7%; viability, T/C [42]: 101%; viability, T/C [43]: 112%; viability, T/C [44]: 72%; viability, T/C [45]: 98.8%; viability, T/C [46]: 97.7%; viability, T/C [47]: 63.9%; viability, T/C [48]: 49.7%; viability, T/C [49]: 58.7%; viability, T/C [50]: 73.8%; viability, T/C [51]: 56.7%; viability, T/C [52]: 0.66%; viability, T/C [53]: 0.41%; viability, T/C [54]: 0.4%; viability, T/C [55]: 1.18%
7 | CCN1CCN(Cc2ccc(Nc3ncc(F)c(-c4cc(F)c5nc(C)n(C(C)C)c5c4)n3)nc2)CC1 + C=CC(=O)N1CCN(c2nc(=O)n(-c3c(C)ccnc3C(C)C)c3nc(-c4c(O)cccc4F)c(F)cc23)C(C)C1 | > 1 | > 1 | > 1 | 0.742 | 0.265 | 71.9 | 72.4 | 78.6 | 59.3 | 79.2 | 62.2 | 66 | 49.2 | 83.6 | 60.4 | 72.8 | 69.3 | 73.9 | 51.8 | 75.7 | viability, T/C [38]: 83%; viability, T/C [39]: 67.4%; viability, T/C [42]: 98.6%; viability, T/C [43]: 96.5%; viability, T/C [46]: 61.9%; viability, T/C [47]: 111%; viability, T/C [21]: 50.4%; viability, T/C [50]: 84.2%; viability, T/C [51]: 93.7%; viability, T/C [26]: 64.6%; viability, T/C [27]: 44.6%; viability, T/C [54]: 109%; viability, T/C [55]: 97.7%; viability, T/C [32]: 60.5%; viability, T/C [33]: 23.4%
8 | COc1cc(Nc2ncc3c(n2)-c2ccc(Cl)cc2C(c2c(F)cccc2OC)=NC3)ccc1C(=O)O |  |  |  |  |  |  |  |  |  |  |  |  |  |  |  |  |  |  |  |  | viability, T/C (compound 0.1 µM): 74.8% [middle of 5 runs]; IC50 (curve of compound): > 10 µM
